The results in this text go back to US11254663B2 (BRISTOL-MYERS SQUIBB COMPANY, priority 2019, dated 2022).

pEC50: −log10 of the molar value.

A word on the pEC50: it is the negative decadic logarithm of the EC50, by convention in mol/L. Read a high pEC50 as a small EC50.

The experiment deals with FXR (Homo sapiens (Human), UniProt Q96RI1). In words: FXR EC50 (FXR agonist potency reported with each Example). Type of experiment: cell-based.
Chain of FXR (Q96RI1 262-486): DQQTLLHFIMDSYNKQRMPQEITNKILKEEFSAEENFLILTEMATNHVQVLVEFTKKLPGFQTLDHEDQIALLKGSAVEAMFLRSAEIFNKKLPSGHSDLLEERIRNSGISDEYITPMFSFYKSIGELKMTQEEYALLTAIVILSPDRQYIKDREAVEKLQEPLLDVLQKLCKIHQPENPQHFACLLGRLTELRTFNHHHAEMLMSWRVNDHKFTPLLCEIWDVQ
In turn, `N#CC1(c2ccc(C34CCC(CN(C(=O)C56CC(F)(C5)C6)c5cccc(-c6nc(C7CC7)no6)c5)(CC3)CO4)cc2)CC1` [Example 143, N-((1-(4-(1-cyanocyclopropyl)phenyl)-2-oxabicyclo[2.2.2]octan-4-yl)methyl)-N-(3-(3-cyclopropyl-1,2,4-oxadiazol-5-yl)phenyl)-3-fluorobicyclo[1.1.1]pentane-1-carboxamide] showed a pEC50 of 7.05.

The compound `N#CC1(c2ccc(C34CCC(CN(C(=O)C5CC(C(F)F)C5)c5cccc(-c6nnc(C7CC7)o6)c5)(CC3)CO4)cc2)CC1` (centres unmarked) [Example 144, N-((1-(4-(1-Cyanocyclopropyl)phenyl)-2-oxabicyclo[2.2.2]octan-4-yl)methyl)-N-(3-(5-cyclopropyl-1,3,4-oxadiazol-2-yl)phenyl)-3-(difluoromethyl)cyclobutane-1-carboxamide] showed a negative-log EC50 (pEC50) of 5.67. This pEC50 lies 1.38 log units lower than the previous one.

Compound `N#CC1(c2ccc(C34CCC(CN(C(=O)C5CC(F)(F)C5)c5cccc(-c6nc(C7CC7)no6)c5)(CC3)CO4)cc2)CC1` [Example 145, N-((1-(4-(1-cyanocyclopropyl)phenyl)-2-oxabicyclo[2.2.2]octan-4-yl)methyl)-N-(3-(3-cyclopropyl-1,2,4-oxadiazol-5-yl)phenyl)-3,3-difluorocyclobutane-1-carboxamide] showed a negative logarithm of the EC50 (pEC50) of 5.36.

In turn, `N#CC1(c2ccc(C34CCC(CN(C(=O)C56CC(F)(C5)C6)c5cccc(-c6nc(C7CC7)no6)c5)(CC3)CO4)cc2)CC1` [Example 146, N-((1-(4-(1-cyanocyclopropyl)phenyl)-2-oxabicyclo[2.2.2]octan-4-yl)methyl)-N-(3-(3-cyclopropyl-1,2,4-oxadiazol-5-yl)phenyl)-3-fluorobicyclo[1.1.1]pentane-1-carboxamide] gave a pEC50 of 6.48.

The compound `COC1(c2nc(-c3cccc(N(CC45CCC(c6nc(C7CC7)no6)(CC4)CC5)C(=O)C45CC(F)(C4)C5)c3)no2)CC1` [Example 147, N-((4-(3-cyclopropyl-1,2,4-oxadiazol-5-yl)bicyclo[2.2.2]octan-1-yl)methyl)-3-fluoro-N-(3-(5-(1-methoxycyclopropyl)-1,2,4-oxadiazol-3-yl)phenyl)bicyclo[1.1.1]pentane-1-carboxamide] showed a pEC50 of 7.10.

In the case of `COc1nccc(C23CCC(CN(C(=O)C45CC(F)(C4)C5)c4cccc(-c5nc(C6CC6)no5)c4)(CC2)CC3)n1` [Example 148, N-(3-(3-cyclopropyl-1,2,4-oxadiazol-5-yl)phenyl)-3-fluoro-N-((4-(2-methoxypyrimidin-4-yl)bicyclo[2.2.2]octan-1-yl)methyl)bicyclo[1.1.1]pentane-1-carboxamide], the pEC50 was 6.16.

In the case of `O=C(N(CC12CCC(c3nc(C4CC4)no3)(CC1)CC2)c1cccc(-c2ccn(C3COC3)n2)c1)C12CC(F)(C1)C2` [Example 149, N-((4-(3-cyclopropyl-1,2,4-oxadiazol-5-yl)bicyclo[2.2.2]octan-1-yl)methyl)-3-fluoro-N-(3-(1-(oxetan-3-yl)-1H-pyrazol-3-yl)phenyl)bicyclo[1.1.1]pentane-1-carboxamide], the pEC50 was 6.95. Against the preceding compound, the pEC50 is 0.79 log units higher.

The compound `O=C(N(CC12CCC(c3nc(C4CC4)no3)(CC1)CC2)c1cccc(-c2cnn(C3COC3)c2)c1)C12CC(F)(C1)C2` [Example 150, N-((4-(3-cyclopropyl-1,2,4-oxadiazol-5-yl)bicyclo[2.2.2]octan-1-yl)methyl)-3-fluoro-N-(3-(1-(oxetan-3-yl)-1H-pyrazol-4-yl)phenyl)bicyclo[1.1.1]pentane-1-carboxamide] gave a pEC50 of 7.06.

`Cc1csc(-c2cccc(N(CC34CCC(c5nc(C6CC6)no5)(CC3)CC4)C(=O)C34CC(F)(C3)C4)c2)n1` [Example 151, N-((4-(3-cyclopropyl-1,2,4-oxadiazol-5-yl)bicyclo[2.2.2]octan-1-yl)methyl)-3-fluoro-N-(3-(4-methylthiazol-2-yl)phenyl)bicyclo[1.1.1]pentane-1-carboxamide] gave a pEC50 of 7.10.

For `O=C(N(CC12CCC(c3nc(C4CC4)no3)(CC1)CC2)c1cccc(-c2cnn(-c3cccnc3)c2)c1)C12CC(F)(C1)C2` [Example 152, N-((4-(3-cyclopropyl-1,2,4-oxadiazol-5-yl)bicyclo[2.2.2]octan-1-yl)methyl)-3-fluoro-N-(3-(1-(pyridin-3-yl)-1H-pyrazol-4-yl)phenyl)bicyclo[1.1.1]pentane-1-carboxamide], the negative logarithm of the EC50 (pEC50) was 6.79.

In turn, `CC(C)(C)c1noc(C23CCC(CN(C(=O)C45CC(F)(C4)C5)c4cccc(-c5nnc(C6CC6)o5)c4)(CC2)CC3)n1` [Example 153, N-((4-(3-(tert-butyl)-1,2,4-oxadiazol-5-yl)bicyclo[2.2.2]octan-1-yl)methyl)-N-(3-(5-cyclopropyl-1,3,4-oxadiazol-2-yl)phenyl)-3-fluorobicyclo[1.1.1]pentane-1-carboxamide] had a pEC50 of 7.14.

`CC1(c2nc(C34CCC(CN(C(=O)C56CC(F)(C5)C6)c5cccc(-c6nnc(C7CC7)o6)c5)(CC3)CC4)no2)CC1` [Example 154, N-(3-(5-cyclopropyl-1,3,4-oxadiazol-2-yl)phenyl)-3-fluoro-N-((4-(5-(1-methylcyclopropyl)-1,2,4-oxadiazol-3-yl)bicyclo[2.2.2]octan-1-yl)methyl) bicyclo[1.1.1]pentane-1-carboxamide] gave a pEC50 of 7.57. Compared with the last compound, the pEC50 is 0.43 log units higher.

`CC1(c2nc(C34CCC(CN(C(=O)C56CC(F)(C5)C6)c5cccc(-c6nnc(C7CC7)o6)c5)(CC3)CC4)no2)COC1` [Example 155, N-(3-(5-cyclopropyl-1,3,4-oxadiazol-2-yl)phenyl)-3-fluoro-N-((4-(5-(3-methyloxetan-3-yl)-1,2,4-oxadiazol-3-yl)bicyclo[2.2.2]octan-1-yl)methyl)bicyclo[1.1.1]pentane-1-carboxamide] gave a pEC50 of 7.14.

Compound `O=C(N(CC12CCC(c3noc(C(F)F)n3)(CC1)CC2)c1cccc(-c2nnc(C3CC3)o2)c1)C12CC(F)(C1)C2` [Example 156, N-(3-(5-cyclopropyl-1,3,4-oxadiazol-2-yl)phenyl)-N-((4-(5-(difluoromethyl)-1,2,4-oxadiazol-3-yl)bicyclo[2.2.2]octan-1-yl)methyl)-3-fluorobicyclo[1.1.1]pentane-1-carboxamide] showed a pEC50 of 6.99.

Compound `CC(C)(C)c1nc(C23CCC(CN(C(=O)C45CC(F)(C4)C5)c4cccc(-c5nnc(C6CC6)o5)c4)(CC2)CC3)no1` [Example 157, N-((4-(5-(tert-butyl)-1,2,4-oxadiazol-3-yl)bicyclo[2.2.2]octan-1-yl)methyl)-N-(3-(5-cyclopropyl-1,3,4-oxadiazol-2-yl)phenyl)-3-fluorobicyclo[1.1.1]pentane-1-carboxamide] showed a pEC50 of 7.37.

As for `O=C(N(CC12CCC(c3nc(C4CC4)no3)(CC1)CC2)c1cccc(-c2cnn(S(=O)(=O)C3CC3)c2)c1)C12CC(F)(C1)C2` [Example 158, N-((4-(3-cyclopropyl-1,2,4-oxadiazol-5-yl)bicyclo[2.2.2]octan-1-yl)methyl)-N-(3-(1-(cyclopropylsulfonyl)-1H-pyrazol-4-yl)phenyl)-3-fluorobicyclo[1.1.1]pentane-1-carboxamide], the pEC50 was 7.37.

Regarding `CS(=O)(=O)n1cc(-c2cccc(N(CC34CCC(c5nc(C6CC6)no5)(CC3)CC4)C(=O)C34CC(F)(C3)C4)c2)cn1` [Example 159, N-((4-(3-cyclopropyl-1,2,4-oxadiazol-5-yl)bicyclo[2.2.2]octan-1-yl)methyl)-3-fluoro-N-(3-(1-(methylsulfonyl)-1H-pyrazol-4-yl)phenyl)bicyclo[1.1.1]pentane-1-carboxamide], the negative logarithm of the EC50 (pEC50) was 7.14.

For the compound `O=C(N(CC12CCC(c3nc(C4CC4)no3)(CC1)CC2)c1cccc(-c2cnn(C(F)F)c2)c1)C12CC(F)(C1)C2` [Example 160, N-((4-(3-cyclopropyl-1,2,4-oxadiazol-5-yl)bicyclo[2.2.2]octan-1-yl)methyl)-N-(3-(1-(difluoromethyl)-1H-pyrazol-4-yl)phenyl)-3-fluorobicyclo[1.1.1]pentane-1-carboxamide], the negative-log EC50 (pEC50) was 7.37. This pEC50 lies 0.23 log units higher than the previous one.

In turn, `O=C(N(CC12CCC(c3nc(C4CC4)no3)(CC1)CC2)c1cccc(-c2cnn(CC(F)F)c2)c1)C12CC(F)(C1)C2` [Example 161, N-((4-(3-cyclopropyl-1,2,4-oxadiazol-5-yl)bicyclo[2.2.2]octan-1-yl)methyl)-N-(3-(1-(2,2-difluoroethyl)-1H-pyrazol-4-yl)phenyl)-3-fluorobicyclo[1.1.1]pentane-1-carboxamide] showed a negative logarithm of the EC50 (pEC50) of 7.02.

In the case of `O=C(N(CC12CCC(c3nc(C4CC4)no3)(CC1)CC2)c1cccc(-c2cnn(CC(F)(F)F)c2)c1)C12CC(F)(C1)C2` [Example 162, N-((4-(3-cyclopropyl-1,2,4-oxadiazol-5-yl)bicyclo[2.2.2]octan-1-yl)methyl)-3-fluoro-N-(3-(1-(2,2,2-trifluoroethyl)-1H-pyrazol-4-yl)phenyl)bicyclo[1.1.1]pentane-1-carboxamide], the negative-log EC50 (pEC50) is 6.94.

Compound `CC(C)c1nc(-c2cccc(N(CC34CCC(c5cc(C6CC6)nn5C)(CC3)CC4)C(=O)C34CC(F)(C3)C4)c2)no1` [Example 163, N-((4-(3-cyclopropyl-1-methyl-1H-pyrazol-5-yl)bicyclo[2.2.2]octan-1-yl)methyl)-3-fluoro-N-(3-(5-isopropyl-1,2,4-oxadiazol-3-yl)phenyl)bicyclo[1.1.1]pentane-1-carboxamide] gave a negative-log EC50 (pEC50) of 6.81. This pEC50 and that of the compound before are within 0.2 log units of each other.

`Cn1nc(C2CC2)cc1C12CCC(CN(C(=O)C34CC(F)(C3)C4)c3cccc(-c4noc(C(F)F)n4)c3)(CC1)CC2` [Example 164, N-((4-(3-cyclopropyl-1-methyl-1H-pyrazol-5-yl)bicyclo[2.2.2]octan-1-yl)methyl)-N-(3-(5-(difluoromethyl)-1,2,4-oxadiazol-3-yl)phenyl)-3-fluorobicyclo[1.1.1]pentane-1-carboxamide] gave a negative logarithm of the EC50 (pEC50) of 6.98.

Compound `Cn1nc(C2CC2)cc1C12CCC(CN(C(=O)C34CC(F)(C3)C4)c3cccc(-c4noc(C(C)(C)C)n4)c3)(CC1)CC2` [Example 165, N-(3-(5-(tert-butyl)-1,2,4-oxadiazol-3-yl)phenyl)-N-((4-(3-cyclopropyl-1-methyl-1H-pyrazol-5-yl)bicyclo[2.2.2]octan-1-yl)methyl)-3-fluorobicyclo[1.1.1]pentane-1-carboxamide] showed a pEC50 of 6.91.
